Assay results from ChEMBL document CHEMBL1201862, “PubChem BioAssay data set” (2004).
Active and inactive are the calls of the source.

Legend:
[1] = biological target: Voltage-gated inwardly rectifying potassium channel KCNH2 (Homo sapiens, UniProt Q12809); test: hERG protection from proarrhythmic block, potency, dose response, cell-based, thallium flux (AID 2121); assay type: ADME
Streptokinase A = biological target: T1, Streptokinase A (Streptococcus pyogenes serotype M1, UniProt P10520); test: S. pyogenes streptokinase expression inhibitors, potency, dose response, plasminogen activation absorbance, OD405 (AID 1914); assay type: functional, Streptococcus pyogenes M1 GAS;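 further: secreted streptokinase activity via plasminogen activation per viability signal from cell pellet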
T1 sequence (P10520 whole entry): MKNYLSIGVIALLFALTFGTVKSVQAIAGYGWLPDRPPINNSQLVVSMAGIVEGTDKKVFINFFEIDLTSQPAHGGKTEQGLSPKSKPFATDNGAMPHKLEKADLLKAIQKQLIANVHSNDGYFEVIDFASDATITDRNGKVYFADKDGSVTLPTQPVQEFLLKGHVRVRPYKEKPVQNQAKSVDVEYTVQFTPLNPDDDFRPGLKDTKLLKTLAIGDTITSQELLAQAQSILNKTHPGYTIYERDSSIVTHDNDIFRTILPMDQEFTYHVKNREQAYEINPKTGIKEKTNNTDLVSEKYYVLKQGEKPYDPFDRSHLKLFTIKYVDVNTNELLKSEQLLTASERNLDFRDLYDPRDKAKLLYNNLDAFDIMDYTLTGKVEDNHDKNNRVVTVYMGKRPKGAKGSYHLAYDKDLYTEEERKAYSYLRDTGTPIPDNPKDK

Streptococcus = test: Group A Streptococcus viability loss, dose response, counter-screen for streptokinase expression inhibitor project, luminescence, BacTiterGlo (AID 1915); assay type: functional, organism-based;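 further: potency for reduction of bacterial viability or growth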
[2] = system: Streptococcus sp. 'group A'; test: growth inhibition of control SK(-) GAS strain, dose response, counter-screen for streptokinase expression inhibitor project, luminescence, kanamycin, BacTiterGlo, confirmation (AID 1900); assay type: functional, organism-based
[3] = biological target: T2, Heat shock factor protein 1 (Mus musculus, UniProt P38532); test: inhibition of MG132-induced HSE-luciferase signal, confirmation, cell-based, NIH3T3, luminescence, dose retest (AID 2382); assay type: functional;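 further: NIH3T3 fibroblasts with HSF1-driven luciferase reporter stressed by proteasome inhibitor MG132; luminescence from HSF1-driven luciferase expression after 8 hours of MG132 stress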
T2 sequence (P38532 whole entry): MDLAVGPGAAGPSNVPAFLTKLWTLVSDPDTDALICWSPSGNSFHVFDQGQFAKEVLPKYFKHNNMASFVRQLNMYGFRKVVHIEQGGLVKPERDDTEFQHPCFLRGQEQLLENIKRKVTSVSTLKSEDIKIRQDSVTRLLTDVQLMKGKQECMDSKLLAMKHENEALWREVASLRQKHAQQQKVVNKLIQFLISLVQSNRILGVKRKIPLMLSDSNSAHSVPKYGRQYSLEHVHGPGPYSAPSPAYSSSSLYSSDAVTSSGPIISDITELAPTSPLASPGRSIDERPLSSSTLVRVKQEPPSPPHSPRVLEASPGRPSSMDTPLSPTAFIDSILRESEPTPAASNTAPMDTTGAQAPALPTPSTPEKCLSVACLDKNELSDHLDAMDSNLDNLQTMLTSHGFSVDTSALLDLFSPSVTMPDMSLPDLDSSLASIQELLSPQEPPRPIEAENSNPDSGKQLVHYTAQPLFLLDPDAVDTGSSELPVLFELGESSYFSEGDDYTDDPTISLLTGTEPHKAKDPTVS

[4] = biological target: T3, Short transient receptor potential channel 4 (Mus musculus, UniProt Q9QUQ5); test: mouse TRPC4 channel inhibitors, dose response, cell-based, HEK293 TRPC4/mu-opioid, Fluo-4 calcium (AID 434942); assay type: functional;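 further: potency of inhibitors blocking the TRPC4 calcium response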
T3 sequence (Q9QUQ5 whole entry): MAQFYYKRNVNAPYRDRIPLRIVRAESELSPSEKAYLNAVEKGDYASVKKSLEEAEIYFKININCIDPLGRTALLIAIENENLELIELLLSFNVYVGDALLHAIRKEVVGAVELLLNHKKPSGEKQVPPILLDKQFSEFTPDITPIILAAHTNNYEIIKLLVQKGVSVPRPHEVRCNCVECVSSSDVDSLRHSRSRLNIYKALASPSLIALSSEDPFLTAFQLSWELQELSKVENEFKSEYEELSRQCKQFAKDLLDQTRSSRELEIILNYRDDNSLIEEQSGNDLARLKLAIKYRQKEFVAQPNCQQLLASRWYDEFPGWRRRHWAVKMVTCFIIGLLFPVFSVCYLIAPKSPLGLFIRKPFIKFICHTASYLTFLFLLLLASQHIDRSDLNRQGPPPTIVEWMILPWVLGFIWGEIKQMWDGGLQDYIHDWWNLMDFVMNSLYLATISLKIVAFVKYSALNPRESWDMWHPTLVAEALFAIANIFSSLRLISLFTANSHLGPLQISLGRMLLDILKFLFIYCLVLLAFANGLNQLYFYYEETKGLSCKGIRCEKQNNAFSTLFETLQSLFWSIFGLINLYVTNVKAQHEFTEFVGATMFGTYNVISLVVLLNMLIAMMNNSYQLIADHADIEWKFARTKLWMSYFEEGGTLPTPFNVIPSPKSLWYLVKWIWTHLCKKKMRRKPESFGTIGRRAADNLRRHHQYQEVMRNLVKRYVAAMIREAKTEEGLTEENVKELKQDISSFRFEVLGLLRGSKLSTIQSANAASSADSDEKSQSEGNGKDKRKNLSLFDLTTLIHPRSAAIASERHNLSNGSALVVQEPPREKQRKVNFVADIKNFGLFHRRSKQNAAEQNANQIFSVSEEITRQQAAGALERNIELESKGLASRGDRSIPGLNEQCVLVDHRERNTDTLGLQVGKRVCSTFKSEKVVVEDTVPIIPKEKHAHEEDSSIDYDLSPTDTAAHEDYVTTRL

NADPH oxidase 1 [5] = biological target: T4, NADPH oxidase 1 (Homo sapiens, UniProt Q9Y5S8); test: Late-stage luminescence-based cell-based dose response assay to identify inhibitors of NADPH oxidase 1 (NOX1): Synthesized analogs.; assay type: functional
T4 sequence (Q9Y5S8 whole entry): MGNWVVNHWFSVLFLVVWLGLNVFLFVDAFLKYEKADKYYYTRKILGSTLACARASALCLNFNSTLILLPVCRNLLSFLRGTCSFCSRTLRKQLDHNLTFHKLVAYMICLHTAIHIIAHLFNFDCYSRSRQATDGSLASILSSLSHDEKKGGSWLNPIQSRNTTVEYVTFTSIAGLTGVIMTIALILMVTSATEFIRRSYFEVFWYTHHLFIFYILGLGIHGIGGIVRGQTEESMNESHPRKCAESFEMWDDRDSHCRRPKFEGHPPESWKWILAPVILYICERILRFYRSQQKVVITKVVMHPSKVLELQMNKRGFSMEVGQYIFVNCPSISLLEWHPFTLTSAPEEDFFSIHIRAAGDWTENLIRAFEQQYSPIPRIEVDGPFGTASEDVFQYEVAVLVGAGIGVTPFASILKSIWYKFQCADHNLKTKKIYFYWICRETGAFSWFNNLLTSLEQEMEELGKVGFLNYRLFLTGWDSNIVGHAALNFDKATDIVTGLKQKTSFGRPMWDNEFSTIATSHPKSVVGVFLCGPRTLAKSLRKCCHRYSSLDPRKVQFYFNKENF

NADPH oxidase 1 [6] = biological target: T4, NADPH oxidase 1; test: Luminescence-based cell-based dose response assay to identify inhibitors of NADPH oxidase 1 (NOX1).; assay type: functional
Estrogen receptor = biological target: T5, Estrogen receptor (Homo sapiens, UniProt P03372); test: potentiators of ERα–SRC-1 coactivator binding, dose response, biochemical, TR-FRET, ERα LBD (AID 737)
T5 sequence (P03372 whole entry): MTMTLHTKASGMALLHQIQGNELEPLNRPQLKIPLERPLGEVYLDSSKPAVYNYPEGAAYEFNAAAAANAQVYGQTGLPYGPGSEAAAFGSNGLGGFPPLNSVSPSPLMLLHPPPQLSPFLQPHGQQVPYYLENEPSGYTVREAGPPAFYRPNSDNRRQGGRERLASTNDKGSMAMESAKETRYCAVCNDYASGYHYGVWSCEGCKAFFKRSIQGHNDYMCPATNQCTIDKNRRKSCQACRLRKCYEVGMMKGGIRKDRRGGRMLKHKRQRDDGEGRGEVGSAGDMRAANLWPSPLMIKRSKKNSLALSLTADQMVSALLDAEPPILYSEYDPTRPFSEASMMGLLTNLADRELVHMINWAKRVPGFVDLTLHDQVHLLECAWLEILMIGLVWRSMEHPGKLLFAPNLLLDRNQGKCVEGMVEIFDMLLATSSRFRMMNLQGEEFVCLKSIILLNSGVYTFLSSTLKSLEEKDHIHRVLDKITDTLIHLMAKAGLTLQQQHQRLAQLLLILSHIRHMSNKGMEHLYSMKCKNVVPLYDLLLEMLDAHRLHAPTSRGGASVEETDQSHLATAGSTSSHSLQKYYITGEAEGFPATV

Estrogen receptor beta [7] = biological target: T6, Estrogen receptor beta (Homo sapiens, UniProt Q92731); test: ERβ–SRC-3 coactivator interaction inhibitors, confirmation, orthogonal assay, biochemical, ELISA, streptavidin-HRP readout (AID 1060)
H9c2 = test: cells; assay type: functional, cell-based; conditions: Rattus norvegicus, H9c2, Myocardium;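 further: confirmatory concentration-response retest of ultra-high-throughput screening hits for modulation of myocardial damage; cell death induced by hydrogen peroxide oxidative stress; compound pretreatment for 60 min then peroxide exposure for 2 h; potency is for protecting the cells against peroxide damage rather than for killing them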
Estrogen receptor beta [8] = biological target: T6, Estrogen receptor beta
HEK293 [9] = test: cytotoxicity in HEK293T NF-kB-Luc cells, SAR follow-up, cytotoxicity control for NF-kB activator project, cell-based, resazurin fluorescence (AID 493251); assay type: functional; conditions: Homo sapiens
[10] = biological target: T7, Microphthalmia-associated transcription factor (Homo sapiens, UniProt O75030); test: TRPM1 promoter luciferase signal decrease, dose response, MITF inhibitor project, cell-based, SK-MEL-5, cherry-picked, set 3 (AID 493073); assay type: functional
T7 sequence (O75030 whole entry): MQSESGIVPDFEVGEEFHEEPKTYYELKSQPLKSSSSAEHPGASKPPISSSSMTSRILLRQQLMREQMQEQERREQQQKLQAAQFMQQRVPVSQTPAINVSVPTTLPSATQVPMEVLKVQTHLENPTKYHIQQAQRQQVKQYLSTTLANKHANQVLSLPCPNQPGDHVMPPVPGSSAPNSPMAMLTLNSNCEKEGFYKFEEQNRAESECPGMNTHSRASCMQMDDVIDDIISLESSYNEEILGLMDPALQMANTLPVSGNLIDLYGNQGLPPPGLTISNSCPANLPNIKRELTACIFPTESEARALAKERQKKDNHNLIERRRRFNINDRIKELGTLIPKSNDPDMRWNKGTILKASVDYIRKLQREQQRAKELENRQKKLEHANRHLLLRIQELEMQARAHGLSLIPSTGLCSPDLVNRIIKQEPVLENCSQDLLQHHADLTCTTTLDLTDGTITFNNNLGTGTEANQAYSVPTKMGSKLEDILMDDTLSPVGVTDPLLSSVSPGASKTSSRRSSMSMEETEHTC

Jurkat = test: SAR Analysis of small molecule inhibitors of T-cell specific antigen receptor-induced NF-kB activation in a Jurkat cell line using a luminescence assay - Set 2. [Related pubchem assays (depositor defined):AID435003, AID435012, AID465]; assay type: functional, cell-based; conditions: Homo sapiens
HeLa = test: Cytotoxicity counterscreen assay for transcriptional activators of heat shock protein 70 (Hsp70). [Related pubchem assays: 1203, 1252 ]; assay type: functional; conditions: Homo sapiens;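 further: cells exposed to compound for 16 hours before readout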
HEK293 [11] = test: SAR Analysis of small molecule inhibitors of T-cell specific antigen receptor-induced NF-kB activation in a HEK-293T cell line using a luminescence assay - Set 2. [Related pubchem assays (depositor defined):AID435003, AID435012, AID489026]; assay type: functional, cell-based; conditions: Homo sapiens
[12] = cytotoxicity toward DRD oncogenic fibroblasts, dose response, cell-based, non-viral oncogenic, luminescence (AID 1934); assay type: functional; conditions: Homo sapiens
[13] = Luminescence-based dose response cell-based high throughput screening assay for cytotoxic compounds using the IEC-6 intestinal epithelial cell line. [Related pubchem assays: 1858 (Summary AID.), 1825 (Counterscreen.), 1907 (Confirmation screen.)]; assay type: functional
BJ [14] = test: cytotoxicity toward BJ-TERT-LT-ST fibroblasts, dose response, cell-based, RAS-independent, luminescence (AID 1935); assay type: functional; conditions: Homo sapiens;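 further: BJ fibroblasts immortalized with TERT plus LT and ST oncogenes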
BJ [15] = test: cells; assay type: functional, cell-based; conditions: Homo sapiens
BJ [16] = test: cytotoxicity toward BJ-TERT fibroblasts, dose response, cell-based, RAS-independent, luminescence (AID 1933); assay type: functional; conditions: Homo sapiens
BJ [17] = test: cytotoxicity toward Ras-transformed BJeLR fibroblasts, dose response, cell-based, alamar blue fluorescence, cherrypicked samples (AID 2631); assay type: functional; conditions: Homo sapiens;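 further: confirmatory dose-response assay in RAS-dependent BJ fibroblasts engineered with TERT, LT and ST, with cytotoxicity read by fluorescence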
NADPH oxidase 1 [18] = biological target: T4, NADPH oxidase 1; assay type: functional, cell-based

T6 sequence (Q92731 whole entry): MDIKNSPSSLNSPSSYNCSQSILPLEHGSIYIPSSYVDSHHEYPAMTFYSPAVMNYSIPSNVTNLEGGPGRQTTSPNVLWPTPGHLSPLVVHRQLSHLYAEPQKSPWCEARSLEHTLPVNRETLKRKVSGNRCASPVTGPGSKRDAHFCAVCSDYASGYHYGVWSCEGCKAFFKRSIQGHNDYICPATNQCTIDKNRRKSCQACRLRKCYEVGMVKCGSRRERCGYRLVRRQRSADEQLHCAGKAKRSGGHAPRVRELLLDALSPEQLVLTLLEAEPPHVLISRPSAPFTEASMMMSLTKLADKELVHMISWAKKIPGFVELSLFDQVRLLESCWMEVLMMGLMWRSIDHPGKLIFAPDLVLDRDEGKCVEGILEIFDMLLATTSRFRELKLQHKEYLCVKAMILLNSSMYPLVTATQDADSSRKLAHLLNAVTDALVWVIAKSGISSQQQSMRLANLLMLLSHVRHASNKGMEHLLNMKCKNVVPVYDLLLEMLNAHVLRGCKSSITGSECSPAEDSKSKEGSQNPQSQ
Chain of Voltage-gated inwardly rectifying potassium channel KCNH2 (Q12809 whole entry): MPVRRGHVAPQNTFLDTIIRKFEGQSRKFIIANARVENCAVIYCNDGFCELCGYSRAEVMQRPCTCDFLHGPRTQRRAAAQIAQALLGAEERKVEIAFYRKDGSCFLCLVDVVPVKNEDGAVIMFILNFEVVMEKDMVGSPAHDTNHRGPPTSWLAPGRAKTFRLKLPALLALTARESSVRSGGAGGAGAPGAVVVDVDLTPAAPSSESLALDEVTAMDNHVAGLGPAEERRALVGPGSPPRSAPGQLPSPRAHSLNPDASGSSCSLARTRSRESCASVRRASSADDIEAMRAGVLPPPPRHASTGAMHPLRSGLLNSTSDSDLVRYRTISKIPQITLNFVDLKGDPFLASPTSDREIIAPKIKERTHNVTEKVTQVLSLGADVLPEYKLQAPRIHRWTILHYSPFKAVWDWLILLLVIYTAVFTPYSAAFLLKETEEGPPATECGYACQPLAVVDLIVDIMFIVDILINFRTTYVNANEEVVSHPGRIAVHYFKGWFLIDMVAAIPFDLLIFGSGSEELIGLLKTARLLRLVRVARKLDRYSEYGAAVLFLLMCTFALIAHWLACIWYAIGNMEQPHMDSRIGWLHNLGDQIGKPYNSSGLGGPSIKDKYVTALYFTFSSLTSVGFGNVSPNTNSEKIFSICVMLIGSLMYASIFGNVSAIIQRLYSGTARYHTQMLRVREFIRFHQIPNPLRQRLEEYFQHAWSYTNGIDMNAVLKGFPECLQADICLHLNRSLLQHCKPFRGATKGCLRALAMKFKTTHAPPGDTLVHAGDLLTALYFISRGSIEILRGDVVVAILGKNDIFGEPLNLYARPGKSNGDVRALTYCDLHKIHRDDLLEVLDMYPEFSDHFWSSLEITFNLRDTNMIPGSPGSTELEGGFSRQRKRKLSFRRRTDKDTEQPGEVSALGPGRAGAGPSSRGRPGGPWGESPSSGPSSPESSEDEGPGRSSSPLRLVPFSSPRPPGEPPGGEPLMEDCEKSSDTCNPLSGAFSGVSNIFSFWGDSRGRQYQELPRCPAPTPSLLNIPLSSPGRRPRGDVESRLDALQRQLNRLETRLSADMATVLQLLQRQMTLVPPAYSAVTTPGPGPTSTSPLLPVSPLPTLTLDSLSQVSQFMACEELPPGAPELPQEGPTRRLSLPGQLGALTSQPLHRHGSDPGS

Compound: COc1ccc(N2CCN(C(=S)NC(=O)c3cccs3)CC2)c([N+](=O)[O-])c1
- EC50 [1]: 12.2 µM (active)
- EC50 (Streptokinase A): > 150 µM (not active)
- EC50 (Streptococcus): 24.5 µM (active)
- EC50 [2]: 9.37 µM (active)

Compound: CC(=O)c1ccc2c(c1)N(C)c1ccccc1S2
- EC50 [3]: > 195 µM (not active)
- EC50 [4]: 7.5 µM (active)
- IC50 (NADPH oxidase 1 [5]): 2.36 µM (active)
- IC50 (NADPH oxidase 1 [6]): 1 µM (active)

Compound: O=C(c1cc2sccc2n1Cc1ccccc1)N1CCc2ccccc21
- EC50 (Estrogen receptor): 23.4 µM (active)

Compound: COc1ccccc1N1CCN(C(=O)c2ccc3nc(-c4ccco4)c(-c4ccco4)nc3c2)CC1
- IC50 (Estrogen receptor beta [7]): 9.53 µM (not active)
- IC50 (H9c2): 11.7 µM (active)
- IC50 (Estrogen receptor beta [8]): 5.96 µM (active)

Compound: O=C(Nc1ccc(N2CCCC2)c(Cl)c1)c1ccc([N+](=O)[O-])o1
- IC50 (HEK293 [9]): 42 µM (inactive)
- AC50 [10]: 11.1 µM (active)
- IC50 (Jurkat): 17.8 µM (active)
- CC50 (HeLa): 5.12 µM (active)
- IC50 (HEK293 [11]): 33.9 µM (inactive)

Compound: CC(C)(C)c1ccc(C(=O)Nc2ccc(C(=O)NCc3cccnc3)cc2)cc1
- EC50 [12]: > 150 µM (not active)
- IC50 [13]: 0.177 µM (active)
- EC50 (BJ [14]): 0.88 µM (inconclusive)
- EC50 (BJ [15]): 0.515 µM (active)
- EC50 (BJ [16]): 25.5 µM (active)
- EC50 (BJ [17]): 0.549 µM (active)

Compound: O=C(O)c1nc(Cl)c(Cl)c(N/N=C/c2ccccc2)c1Cl
- IC50 (NADPH oxidase 1 [18]): > 17 µM (not active)
